# Experimental data: ChEMBL document CHEMBL5131424, “Synthesis and evaluation of antibacterial and trypanocidal activity of derivatives of monensin A” (Bioorg Med Chem Lett, 2022)
# What was measured:
# HL-60 = assay: (§1) Cytotoxicity against human HL-60 cells assessed as reduction in cell viability measured after 24 hrs by resazurin dye based assay; assay type: toxicity; conditions: hl-60, 24 h
# [1] = as §1; assay type: toxicity; conditions: HL-60 cells
# Staphylococcus aureus [2] = assay: Antibacterial activity against Staphylococcus aureus ATCC 6538; assay type: functional
# Escherichia coli [3] = assay: Antibacterial activity against Escherichia coli ATCC 25922; assay type: functional
# Escherichia coli [4] = assay: Antibacterial activity against Escherichia coli NCTC 10538; assay type: functional
# [5] = Selectivity ratio of GI50 for cytotoxicity against human HL-60 cells to GI50 for antitrypanosomal activity against bloodstream form of Trypanosoma brucei clone 427-221a; assay type: toxicity, cell-based; conditions: read-out: RatioGI50
# Pseudomonas aeruginosa [6] = assay: Antibacterial activity against Pseudomonas aeruginosa ATCC 15442; assay type: functional
# [7] = system: Staphylococcus epidermidis; assay: Antibacterial activity against Staphylococcus epidermidis 845/19; assay type: functional
# [8] = system: Staphylococcus epidermidis; assay: Antibacterial activity against Staphylococcus epidermidis 825/19; assay type: functional
# [9] = system: Staphylococcus epidermidis; assay: Antibacterial activity against Staphylococcus epidermidis 848/19; assay type: functional
# [10] = system: Staphylococcus epidermidis; assay: Antibacterial activity against Staphylococcus epidermidis 834/19; assay type: functional
# [11] = system: Staphylococcus epidermidis; assay: Antibacterial activity against Staphylococcus epidermidis 829/19; assay type: functional
# [12] = system: Staphylococcus epidermidis; assay: Antibacterial activity against Staphylococcus epidermidis ATCC 12228; assay type: functional
# [13] = Selectivity ratio of MIC for cytotoxicity against human HL-60 cells to MIC for antitrypanosomal activity against bloodstream form of Trypanosoma brucei clone 427-221a; assay type: toxicity, cell-based
# [14] = system: Staphylococcus epidermidis; assay: Antibacterial activity against Staphylococcus epidermidis 851/19; assay type: functional
# Staphylococcus aureus [15] = assay: Antibacterial activity against Staphylococcus aureus ATCC 29213; assay type: functional
# Staphylococcus aureus [16] = assay: Antibacterial activity against Staphylococcus aureus ATCC 25923; assay type: functional
# [17] = system: Staphylococcus epidermidis; assay: Antibacterial activity against Staphylococcus epidermidis 830/19; assay type: functional
# Staphylococcus aureus [18] = assay: Antibacterial activity against Staphylococcus aureus NCTC 4163; assay type: functional
# [19] = system: Staphylococcus epidermidis; assay: Antibacterial activity against Staphylococcus epidermidis 840/19; assay type: functional
# [20] = system: Staphylococcus epidermidis; assay: Antibacterial activity against Staphylococcus epidermidis ATCC 35984; assay type: functional
# Trypanosoma brucei = assay: Antitrypanosomal activity against bloodstream form of Trypanosoma brucei clone 427-221a measured after 24 hrs by resazurin dye based assay; assay type: functional
# Pseudomonas aeruginosa [21] = assay: Antibacterial activity against Pseudomonas aeruginosa […]; assay type: functional
structure (smiles),measurement,setting,value
CO[C@H]([C@H](C)[C@H]1O[C@@]2(CC[C@@](C)([C@H]3CC[C@@](CO)([C@@H]4O[C@@H]([C@H]5O[C@@](O)(COC(=O)NCCCCl)[C@H](C)C[C@@H]5C)C[C@@H]4C)O3)O2)C[C@H](O)[C@H]1C)[C@H](C)C(=O)O,MIC,HL-60,100 µM
same,GI50 at 24 h,[1],18.1 µM
same,MIC,Staphylococcus aureus [2],2 µg/mL
same,MIC,Escherichia coli [3],> 256 µg/mL
same,MIC,Escherichia coli [4],> 256 µg/mL
same,selectivity ratio,[5],5.9
same,MIC,Pseudomonas aeruginosa [6],> 256 µg/mL
same,MIC,[7],4 µg/mL
same,MIC,[8],2 µg/mL
same,MIC,[9],8 µg/mL
same,MIC,[10],4 µg/mL
same,MIC,[11],4 µg/mL
same,MIC,[12],4 µg/mL
same,selectivity ratio,[13],10
same,MIC,[14],4 µg/mL
same,MIC,Staphylococcus aureus [15],4 µg/mL
same,MIC,Staphylococcus aureus [16],2 µg/mL
same,MIC,[17],4 µg/mL
same,MIC,Staphylococcus aureus [18],2 µg/mL
same,MIC,[19],8 µg/mL
same,MIC,[20],4 µg/mL
same,GI50,Trypanosoma brucei,3.05 µM
same,MIC,Trypanosoma brucei,10 µM
same,MIC,Pseudomonas aeruginosa [21],> 256 µg/mL
CO[C@H]([C@H](C)[C@H]1O[C@@]2(CC[C@@](C)([C@H]3CC[C@@](CO)([C@@H]4O[C@@H]([C@H]5O[C@@](O)(COC(=O)NCc6ccccc6)[C@H](C)C[C@@H]5C)C[C@@H]4C)O3)O2)C[C@H](O)[C@H]1C)[C@H](C)C(=O)O,MIC,HL-60,100 µM
same,GI50 at 24 h,[1],19.5 µM
same,MIC,Staphylococcus aureus [2],1 µg/mL
same,MIC,Escherichia coli [3],> 256 µg/mL
same,MIC,Escherichia coli [4],> 256 µg/mL
same,selectivity ratio,[5],62.9
same,MIC,Pseudomonas aeruginosa [6],> 256 µg/mL
same,MIC,[7],2 µg/mL
same,MIC,[8],1 µg/mL
same,MIC,[9],2 µg/mL
same,MIC,[10],2 µg/mL
same,MIC,[11],2 µg/mL
same,MIC,[12],1 µg/mL
same,selectivity ratio,[13],100
same,MIC,[14],2 µg/mL
same,MIC,Staphylococcus aureus [15],2 µg/mL
same,MIC,Staphylococcus aureus [16],1 µg/mL
same,MIC,[17],2 µg/mL
same,MIC,Staphylococcus aureus [18],1 µg/mL
same,MIC,[19],2 µg/mL
same,MIC,[20],2 µg/mL
same,GI50,Trypanosoma brucei,0.31 µM
same,MIC,Trypanosoma brucei,1 µM
same,MIC,Pseudomonas aeruginosa [21],> 256 µg/mL
CO[C@H]([C@H](C)[C@H]1O[C@@]2(CC[C@@](C)([C@H]3CC[C@@](CO)([C@@H]4O[C@@H]([C@H]5O[C@@](O)(COC(=O)c6ccccc6)[C@H](C)C[C@@H]5C)C[C@@H]4C)O3)O2)C[C@H](O)[C@H]1C)[C@H](C)C(=O)O,MIC,HL-60,100 µM
same,GI50 at 24 h,[1],18.3 µM
same,MIC,Staphylococcus aureus [2],1 µg/mL
same,MIC,Escherichia coli [3],> 256 µg/mL
same,MIC,Escherichia coli [4],> 256 µg/mL
same,selectivity ratio,[5],7
same,MIC,Pseudomonas aeruginosa [6],> 256 µg/mL
same,MIC,[7],2 µg/mL
same,MIC,[8],0.5 µg/mL
same,MIC,[9],2 µg/mL
same,MIC,[10],1 µg/mL
same,MIC,[11],2 µg/mL
same,MIC,[12],1 µg/mL
same,selectivity ratio,[13],10
same,MIC,[14],1 µg/mL
same,MIC,Staphylococcus aureus [15],1 µg/mL
same,MIC,Staphylococcus aureus [16],1 µg/mL
same,MIC,[17],1 µg/mL
same,MIC,Staphylococcus aureus [18],1 µg/mL
same,MIC,[19],2 µg/mL
same,MIC,[20],1 µg/mL
same,GI50,Trypanosoma brucei,2.62 µM
same,MIC,Trypanosoma brucei,10 µM
same,MIC,Pseudomonas aeruginosa [21],> 256 µg/mL
CCCCNC(=O)OC[C@]1(O)O[C@H]([C@H]2C[C@H](C)[C@H]([C@]3(CO)CC[C@H]([C@]4(C)CC[C@]5(C[C@H](O)[C@@H](C)[C@@H]([C@@H](C)[C@@H](OC)[C@H](C)C(=O)O)O5)O4)O3)O2)[C@@H](C)C[C@H]1C,MIC,HL-60,100 µM
same,GI50 at 24 h,[1],11.4 µM
same,MIC,Staphylococcus aureus [2],1 µg/mL
same,MIC,Escherichia coli [3],> 256 µg/mL
same,MIC,Escherichia coli [4],> 256 µg/mL
same,selectivity ratio,[5],24.3
same,MIC,Pseudomonas aeruginosa [6],> 256 µg/mL
same,MIC,[7],2 µg/mL
same,MIC,[8],1 µg/mL
same,MIC,[9],2 µg/mL
same,MIC,[10],2 µg/mL
same,MIC,[11],1 µg/mL
same,MIC,[12],1 µg/mL
same,selectivity ratio,[13],19
same,MIC,[14],2 µg/mL
same,MIC,Staphylococcus aureus [15],2 µg/mL
same,MIC,Staphylococcus aureus [16],1 µg/mL
same,MIC,[17],1 µg/mL
same,MIC,Staphylococcus aureus [18],1 µg/mL
same,MIC,[19],2 µg/mL
same,MIC,[20],1 µg/mL
same,GI50,Trypanosoma brucei,0.47 µM
same,MIC,Trypanosoma brucei,10 µM
same,MIC,Pseudomonas aeruginosa [21],> 256 µg/mL
O=C(O)c1cn(C2CC2)c2cc(N3CCNCC3)c(F)cc2c1=O [CIPROFLOXACIN],MIC,Pseudomonas aeruginosa [6],< 0.125 µg/mL
same,MIC,[7],16 µg/mL
same,MIC,[8],4 µg/mL
same,MIC,[9],≤ 0.125 µg/mL
same,MIC,[10],≤ 0.125 µg/mL
same,MIC,[11],≤ 0.125 µg/mL
same,MIC,[12],0.5 µg/mL
same,MIC,[14],≤ 0.125 µg/mL
same,MIC,Staphylococcus aureus [16],0.5 µg/mL
same,MIC,[17],64 µg/mL
same,MIC,Staphylococcus aureus [18],0.25 µg/mL
same,MIC,[19],≤ 0.125 µg/mL
same,MIC,[20],0.25 µg/mL
same,MIC,Pseudomonas aeruginosa [21],< 0.125 µg/mL
Cc1ccc(C(=O)Nc2ccc(S(=O)(=O)O)c3cc(S(=O)(=O)O)cc(S(=O)(=O)O)c23)cc1NC(=O)c1cccc(NC(=O)Nc2cccc(C(=O)Nc3cc(C(=O)Nc4ccc(S(=O)(=O)O)c5cc(S(=O)(=O)O)cc(S(=O)(=O)O)c45)ccc3C)c2)c1 [SURAMIN],MIC,HL-60,> 100 µM
same,GI50 at 24 h,[1],> 100 µM
same,selectivity ratio,[5],> 2000
same,selectivity ratio,[13],> 100
same,GI50,Trypanosoma brucei,0.05 µM
same,MIC,Trypanosoma brucei,1 µM
